4 molecules from ChEMBL document CHEMBL4825711, “Necrostatins regulate apoptosis, necroptosis, and inflammation in cisplatin-induced nephrotoxicity in LLC-PK1 cells” (2021) can be followed below.

Assay [1] has as its system LLC-PK1. The assay is described as follows: Inhibition of cisplatin-induced p38 MAPK phosphorylation in pig LLC-PK1 cells at 50 uM measured after 24 hrs in presence of cisplatin by western blot analysis. It counts as cell-based. As to conditions: Sus scrofa.
The test system of assay [2] is LLC-PK1. The assay is described as follows: Protection against cisplatin-induced nephrotoxicity in pig LLC-PK1 cells assessed as inhibition of apoptosis by measuring reduction in green stained cells at 50 uM measured after 24 hrs in presence of cisplatin by Tali image based cytometric analysis. The assay is classed as functional, cell-based. The conditions noted are these: Sus scrofa.

Assay [3] has as its system LLC-PK1. The assay can be described thus: Protection against cisplatin-induced nephrotoxicity in pig LLC-PK1 cells assessed as inhibition of apoptosis by measuring red-stained dead cells at 50 uM measured after 24 hrs in presence of cisplatin by Tali image based cytometric analysis. As to conditions: Sus scrofa. It counts as functional, cell-based.
The test system of assay [4] is LLC-PK1. The assay is described as follows: Protection against cisplatin-induced nephrotoxicity in pig LLC-PK1 cells assessed as cell viability at 50 uM measured after 24 hrs in presence of cisplatin. The assay is classed as functional. As to conditions: Sus scrofa, read-out: Activity.
The subject of assay [5] is LLC-PK1. The assay is described as follows: Inhibition of cisplatin-induced JNK phosphorylation in pig LLC-PK1 cells at 50 uM measured after 24 hrs in presence of cisplatin by western blot analysis. The assay is classed as cell-based. The conditions noted are these: Sus scrofa. For orientation: A western blot detects proteins with antibodies after separation by electrophoresis.

Assay [6] deals with LLC-PK1. The assay is described as follows: Protection against cisplatin-induced nephrotoxicity in pig LLC-PK1 cells assessed as inhibition of apoptosis by measuring decrease in cleaved caspase-3 level at 50 uM measured after 24 hrs in presence of cisplatin by western blot analysis. As to conditions: Sus scrofa. It counts as functional, cell-based.
Assay [7] has as its system LLC-PK1. The assay is described as follows: Inhibition of cisplatin-induced ERK phosphorylation in pig LLC-PK1 cells at 50 uM measured after 24 hrs in presence of cisplatin by western blot analysis. It counts as cell-based. The conditions noted are these: Sus scrofa.
Assay [8] has as its system LLC-PK1. The assay is described as follows: Protection against cisplatin-induced nephrotoxicity in pig LLC-PK1 cells assessed as increase in cell viability measured after 24 hrs in presence of cisplatin. It counts as functional, cell-based. The conditions noted are these: Sus scrofa, dose 3.125-50 µM.
Assay [9] deals with LLC-PK1. The assay can be described thus: Protection against cisplatin-induced nephrotoxicity in pig LLC-PK1 cells assessed as cell viability at 1000 uM measured after 24 hrs in presence of cisplatin. It counts as functional. As to conditions: Sus scrofa, read-out: Activity.
Assay [10] relates to LLC-PK1. The assay is described as follows: Protection against cisplatin-induced nephrotoxicity in pig LLC-PK1 cells assessed as increase in cell viability at 50 to 1000 uM measured after 24 hrs in presence of cisplatin. As to conditions: Sus scrofa, dose 50-1000 µM. It counts as functional, cell-based.

Structures are written as SMILES. Activity calls are given as the source filed them. The calls are words filed in the database; no cut-off is given here.

Regarding `CN1C(=O)C(Cc2c[nH]c3ccccc23)NC1=S` (stereo not drawn) [NECROSTATIN], the inhibition entry with LLC-PK1 [1], with LLC-PK1 [5] and in the assay on LLC-PK1 [7] was “Active” each time. In addition, the result in the assay with LLC-PK1 [2] and in the assay with LLC-PK1 [6] was Active. Moreover, the outcome in the assay on LLC-PK1 [3] was inactive. The viability at 50 µM with LLC-PK1 [4] came to 90.5%. Also, the Activity result in the assay with LLC-PK1 [8] was “Dose-Dependent Effect”.

As for `CC(=O)N[C@@H](CS)C(=O)O` [ACETYLCYSTEINE], in the assay on LLC-PK1 [9], the viability at 1000 µM was 89.4%. For the same molecule, the Activity entry in the assay on LLC-PK1 [10] is “Dose-Dependent Effect”.

As to `COc1ccc([C@H]2[C@H]3CCc4ccc(OC)cc4C3=NN2C(C)=O)cc1`, the inhibition result in the assay with LLC-PK1 [1], with LLC-PK1 [5] and with LLC-PK1 [7] was “Active” throughout. Also, the outcome in the assay on LLC-PK1 [2] and with LLC-PK1 [6] was Active. Further, in the assay with LLC-PK1 [4], the viability at 50 µM turned out to be 87.5%. In addition, the Activity result in the assay with LLC-PK1 [8] was “Dose-Dependent Effect”.

As for `COc1ccc([C@H]2[C@@H]3CCc4ccc(OC)cc4C3=NN2C(C)=O)cc1`, the inhibition result in the assay on LLC-PK1 [1], in the assay with LLC-PK1 [5] and in the assay on LLC-PK1 [7] was “Active” each time. The result in the assay with LLC-PK1 [2] and in the assay with LLC-PK1 [6] was Active. Moreover, in the assay on LLC-PK1 [4], the viability at 50 µM worked out at 84.5%.
